Data taken from the supplement of paper PMC11061612.

Columns and labels:
Test in all cases: combination Emax (second highest fraction inhibited in the dose matrix, 72 h); higher = more inhibition; extreme values may be limits of the assay
M059J (Glioblastoma) = system: M059J (Glioblastoma)
Summary of the method: (§1)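 Cell lines in DMEM/F12 or RPMI with 10% FBS were plated in 1536-well plates, held 24 hours at 37°C, 5% CO2, then given two-drug dose matrices for 72 hours (DMSO typically 0.2%). Viability was read by CellTiter-Glo 2.0 luminescence and scaled as inhibition from 0 (vehicle wells) to 1 (blank wells). Combination Emax is the second-highest inhibition in the matrix; Bliss excess is observed combination effect minus expected EA + EB − EA·EB, EA and EB being single-agent effects.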

[1] = system: SK-GT-4 (Esophageal Adenocarcinoma)
Summary of the method: as §1

[2] = system: NCI-H520 (Squamous Cell Lung Carcinoma)
Summary of the method: as §1

[3] = system: MN-60 (B-Lymphoblastic Leukemia)
Summary of the method: as §1

[4] = system: IM-95 (Gastric Carcinoma)
Summary of the method: as §1

NCI-H2731 (Mesothelioma) = system: NCI-H2731 (Mesothelioma)
Summary of the method: as §1

[5] = system: NCI-H3122 (Lung Adenocarcinoma)
Summary of the method: as §1

[6] = system: ST486 (Burkitt's Lymphoma)
Summary of the method: as §1

[7] = system: VMRC-RCZ (Kidney Carcinoma)
Summary of the method: as §1

[8] = system: KY821 (Acute Myeloid Leukemia)
Summary of the method: as §1

[9] = system: SU-DHL-5 (B-Cell Non-Hodgkin's Lymphoma)
Summary of the method: as §1

[10] = system: KP-3 (Pancreatic Carcinoma)
Summary of the method: as §1

[11] = system: NCI-H526 (Small Cell Lung Carcinoma)
Summary of the method: as §1

[12] = system: KYSE-270 (Esophageal Squamous Cell Carcinoma)
Summary of the method: as §1

[13] = system: 8505C (Thyroid Gland Carcinoma)
Summary of the method: as §1

[14] = system: COR-L279 (Small Cell Lung Carcinoma)
Summary of the method: as §1

[15] = system: KMS-12-BM (Plasma Cell Myeloma)
Summary of the method: as §1

[16] = system: JHH-4 (Hepatocellular Carcinoma)
Summary of the method: as §1

RD (Rhabdomyosarcoma) = system: RD (Rhabdomyosarcoma)
Summary of the method: as §1

[17] = system: SK-GT-2 (Gastric Carcinoma)
Summary of the method: as §1

CCc1c2c(nc3ccc(O)cc13)-c1cc3c(c(=O)n1C2)COC(=O)[C@]3(O)CC [SN-38] + O=C(c1cc(Cc2n[nH]c(=O)c3ccccc23)ccc1F)N1CCN(C(=O)C2CC2)CC1 [Olaparib] (first compound max 0.3 µM, 7x7, partner max 10 µM)
combination Emax (M059J (Glioblastoma)): 0.987
combination Emax [1]: 0.4
combination Emax [2]: 0.834
combination Emax [3]: 0.858
combination Emax [4]: 0.465
combination Emax (NCI-H2731 (Mesothelioma)): 0.503
combination Emax [5]: 0.932
combination Emax [6]: 0.702
combination Emax [7]: 0.281
combination Emax [8]: 0.998
combination Emax [9]: 1
combination Emax [10]: 0.0787
combination Emax [11]: 1
combination Emax [12]: 0.949
combination Emax [13]: 0.849
combination Emax [14]: 1

NC1(C(=O)N[C@@H](CCO)c2ccc(Cl)cc2)CCN(c2ncnc3[nH]ccc23)CC1 [Capivasertib] + COc1nnc2ccc(N3CCC(c4ccc(OCCN5CCN(C)C(=O)[C@H]5C)cc4)CC3)nn12 [AZD5153] (first compound max 10 µM, 7x7, partner max 1 µM)
combination Emax (M059J (Glioblastoma)): 0.682
combination Emax [1]: 0.758
combination Emax [2]: 0.806
combination Emax [15]: 1
combination Emax [3]: 0.848
combination Emax [4]: 0.562
combination Emax (NCI-H2731 (Mesothelioma)): 0.588
combination Emax [5]: 0.738
combination Emax [6]: 0.91
combination Emax [7]: 0.487
combination Emax [8]: 1
combination Emax [9]: 1
combination Emax [16]: 0.324
combination Emax (RD (Rhabdomyosarcoma)): 0.683
combination Emax [17]: 0.362
combination Emax [10]: 0.296
combination Emax [11]: 0.983
combination Emax [12]: 0.466
combination Emax [13]: 0.405
combination Emax [14]: 1

Cc1cc2ncnn2cc1Nc1ncc2c(n1)n(C1CCOCC1)c(=O)n2C [AZD7648] + O=C(c1cc(Cc2n[nH]c(=O)c3ccccc23)ccc1F)N1CCN(C(=O)C2CC2)CC1 [Olaparib] (first compound max 10 µM, 7x7, partner max 10 µM)
combination Emax (M059J (Glioblastoma)): 0.431
combination Emax [1]: 0.26
combination Emax [2]: 0.485
combination Emax [15]: 0.429
combination Emax [3]: 0.175
combination Emax [4]: 0.204
combination Emax (NCI-H2731 (Mesothelioma)): 0.14
combination Emax [5]: 0.281
combination Emax [6]: 0.424
combination Emax [7]: 0.129
combination Emax [8]: 0.355
combination Emax [9]: 0.96
combination Emax [16]: 0.112
combination Emax (RD (Rhabdomyosarcoma)): 0.161
combination Emax [17]: 0.0892
combination Emax [10]: 0.0579
combination Emax [11]: 0.473
combination Emax [12]: 0.212
combination Emax [13]: 0.229
combination Emax [14]: 0.858

COc1cccc(OCCCN)c1-c1cc(Nc2cnc(C#N)cn2)n[nH]1 [Prexasertib] + CCc1c2c(nc3ccc(O)cc13)-c1cc3c(c(=O)n1C2)COC(=O)[C@]3(O)CC [SN-38] (first compound max 1 µM, 7x7, partner max 0.3 µM)
combination Emax (M059J (Glioblastoma)): 0.98
combination Emax [1]: 0.743
combination Emax [2]: 0.867
combination Emax [15]: 1
combination Emax [3]: 0.825
combination Emax [4]: 0.602
combination Emax (NCI-H2731 (Mesothelioma)): 0.663
combination Emax [5]: 0.933
combination Emax [6]: 1
combination Emax [7]: 0.625
combination Emax [8]: 1
combination Emax [9]: 1
combination Emax [16]: 0.954
combination Emax (RD (Rhabdomyosarcoma)): 0.958
combination Emax [17]: 0.975
combination Emax [10]: 0.57
combination Emax [11]: 1
combination Emax [12]: 1
combination Emax [13]: 0.854
combination Emax [14]: 1

COc1nnc2ccc(N3CCC(c4ccc(OCCN5CCN(C)C(=O)[C@H]5C)cc4)CC3)nn12 [AZD5153] + CN(CC[C@H](CSC1=CC=CC=C1)NC2=C(C=C(C=C2)S(=O)(=O)NC(=O)C3=CC=C(C=C3)N4CCC(CC4)[C@H](C5=CC=CC=C5C6=CC=C(C=C6)Cl)O)S(=O)(=O)C(F)(F)F)CCO [AZD4320] (first compound max 1 µM, 7x7, partner max 1 µM)
combination Emax [15]: 1
combination Emax [4]: 0.548
combination Emax [8]: 1
combination Emax [9]: 0.994
combination Emax [16]: 0.36
combination Emax (RD (Rhabdomyosarcoma)): 0.939
combination Emax [17]: 0.346
combination Emax [13]: 0.441

CS(=O)(=O)CCNCc1ccc(-c2ccc3ncnc(Nc4ccc(OCc5cccc(F)c5)c(Cl)c4)c3c2)o1 [Lapatinib] + Cn1cnc2c(F)c(Nc3ccc(Br)cc3Cl)c(C(=O)NOCCO)cc21 [Selumetinib] (first compound max 10 µM, 7x7, partner max 10 µM)
combination Emax (M059J (Glioblastoma)): 0.365
combination Emax [1]: 0.585
combination Emax [2]: 0.357
combination Emax [3]: 0.204
combination Emax (NCI-H2731 (Mesothelioma)): 0.35
combination Emax [5]: 0.611
combination Emax [6]: 0.825
combination Emax [7]: 0.257
combination Emax [10]: 0.367
combination Emax [11]: 0.164
combination Emax [12]: 0.542
combination Emax [14]: 0.811

Cc1c2c(nn1C)CSCc1cc(n(C)n1)CSc1cc(c3ccccc3c1)OCCCc1c(C(=O)O)n(C)c3c-2c(Cl)ccc13 [AZD5991] + CN(C)CCCOc1ccc(-c2ccc3ncc4c(c3c2)n(C2CCOCC2)c(=O)n4C)cn1 [AZD0156] (first compound max 1 µM, 7x7, partner max 1 µM)
combination Emax (M059J (Glioblastoma)): 0.338
combination Emax [1]: 0.277
combination Emax [2]: 0.509
combination Emax [15]: 1
combination Emax [3]: 0.177
combination Emax [4]: 0.824
combination Emax (NCI-H2731 (Mesothelioma)): 0.193
combination Emax [5]: 0.405
combination Emax [6]: 0.805
combination Emax [7]: 0.21
combination Emax [8]: 1
combination Emax [9]: 1
combination Emax [16]: 0.331
combination Emax (RD (Rhabdomyosarcoma)): 0.603
combination Emax [17]: 0.182
combination Emax [11]: 0.378
combination Emax [12]: 0.542
combination Emax [13]: 0.609
combination Emax [14]: 0.496

C[C@@H](c1ccc2nccn2c1)n1nnc2ncc(-c3cnn(C)c3)nc21 [Savolitinib] + CN(CC[C@H](CSC1=CC=CC=C1)NC2=C(C=C(C=C2)S(=O)(=O)NC(=O)C3=CC=C(C=C3)N4CCC(CC4)[C@H](C5=CC=CC=C5C6=CC=C(C=C6)Cl)O)S(=O)(=O)C(F)(F)F)CCO [AZD4320] (first compound max 1 µM, 7x7, partner max 1 µM)
combination Emax [15]: 1
combination Emax [4]: 0.675
combination Emax [8]: 1
combination Emax [9]: 0.24
combination Emax [16]: 0.256
combination Emax (RD (Rhabdomyosarcoma)): 0.646
combination Emax [17]: 0.136
combination Emax [13]: 0.201

Cc1c2c(nn1C)CSCc1cc(n(C)n1)CSc1cc(c3ccccc3c1)OCCCc1c(C(=O)O)n(C)c3c-2c(Cl)ccc13 [AZD5991] + C[C@@H]1COCCN1C2=NC(=NC(=C2)C3(CC3)[S@](=N)(=O)C)C4=C5C=CNC5=NC=C4 [AZD6738] (first compound max 1 µM, 7x7, partner max 10 µM)
combination Emax (M059J (Glioblastoma)): 0.774
combination Emax [1]: 0.526
combination Emax [2]: 0.619
combination Emax [15]: 1
combination Emax [3]: 0.399
combination Emax [4]: 0.859
combination Emax (NCI-H2731 (Mesothelioma)): 0.294
combination Emax [5]: 0.841
combination Emax [6]: 1
combination Emax [8]: 1
combination Emax [9]: 1
combination Emax [16]: 0.369
combination Emax (RD (Rhabdomyosarcoma)): 0.739
combination Emax [17]: 0.334
combination Emax [10]: 0.377
combination Emax [11]: 0.833
combination Emax [12]: 0.892
combination Emax [13]: 0.34
combination Emax [14]: 0.822

C=CCn1c(=O)c2cnc(Nc3ccc(N4CCN(C)CC4)cc3)nc2n1-c1cccc(C(C)(C)O)n1 [AZD1775] + C[C@@H]1COCCN1C2=NC(=NC(=C2)C3(CC3)[S@](=N)(=O)C)C4=C5C=CNC5=NC=C4 [AZD6738] (first compound max 1 µM, partner max 10 µM)
combination Emax (M059J (Glioblastoma)): 0.777
combination Emax [1]: 0.722
combination Emax [2]: 0.86
combination Emax [15]: 1
combination Emax [3]: 0.64
combination Emax [4]: 0.761
combination Emax (NCI-H2731 (Mesothelioma)): 0.464
combination Emax [5]: 0.872
combination Emax [6]: 0.979
combination Emax [7]: 0.41
combination Emax [8]: 1
combination Emax [9]: 1
combination Emax [16]: 0.498
combination Emax (RD (Rhabdomyosarcoma)): 0.655
combination Emax [17]: 0.799
combination Emax [11]: 0.873
combination Emax [12]: 1
combination Emax [14]: 0.675

Cc1c2c(nn1C)CSCc1cc(n(C)n1)CSc1cc(c3ccccc3c1)OCCCc1c(C(=O)O)n(C)c3c-2c(Cl)ccc13 [AZD5991] + Cn1cnc2c(F)c(Nc3ccc(Br)cc3Cl)c(C(=O)NOCCO)cc21 [Selumetinib] (first compound max 1 µM, 7x7, partner max 3 µM)
combination Emax (M059J (Glioblastoma)): 0.264
combination Emax [1]: 0.574
combination Emax [2]: 0.176
combination Emax [15]: 1
combination Emax [3]: 0.323
combination Emax [4]: 0.957
combination Emax (NCI-H2731 (Mesothelioma)): 0.151
combination Emax [5]: 0.881
combination Emax [6]: 0.993
combination Emax [7]: 0.214
combination Emax [8]: 1
combination Emax [9]: 1
combination Emax [16]: 0.492
combination Emax (RD (Rhabdomyosarcoma)): 0.625
combination Emax [17]: 0.154
combination Emax [12]: 0.76
combination Emax [13]: 0.42
combination Emax [14]: 0.18

C[C@@H]1COCCN1c1cc(C2([S@](C)(=N)=O)CC2)nc(-c2ccnc3[nH]ccc23)n1 [AZD6738] + O=C(c1cc(Cc2n[nH]c(=O)c3ccccc23)ccc1F)N1CCN(C(=O)C2CC2)CC1 [Olaparib] (first compound max 10 µM, 7x7, partner max 10 µM)
combination Emax (M059J (Glioblastoma)): 0.684
combination Emax [1]: 0.51
combination Emax [2]: 0.752
combination Emax [15]: 0.945
combination Emax [3]: 0.528
combination Emax [4]: 0.459
combination Emax (NCI-H2731 (Mesothelioma)): 0.304
combination Emax [5]: 0.726
combination Emax [6]: 0.909
combination Emax [7]: 0.319
combination Emax [8]: 0.97
combination Emax [9]: 1
combination Emax [16]: 0.251
combination Emax (RD (Rhabdomyosarcoma)): 0.332
combination Emax [17]: 0.355
combination Emax [11]: 0.752
combination Emax [12]: 0.794
combination Emax [13]: 0.356
combination Emax [14]: 0.927

Cc1c2c(nn1C)CSCc1cc(n(C)n1)CSc1cc(c3ccccc3c1)OCCCc1c(C(=O)O)n(C)c3c-2c(Cl)ccc13 [AZD5991] + C=CCn1c(=O)c2cnc(Nc3ccc(N4CCN(C)CC4)cc3)nc2n1-c1cccc(C(C)(C)O)n1 [AZD1775] (first compound max 1 µM, partner max 1 µM)
combination Emax (M059J (Glioblastoma)): 0.634
combination Emax [1]: 0.465
combination Emax [2]: 0.76
combination Emax [15]: 1
combination Emax [3]: 0.188
combination Emax [4]: 0.895
combination Emax (NCI-H2731 (Mesothelioma)): 0.298
combination Emax [5]: 0.815
combination Emax [6]: 1
combination Emax [8]: 1
combination Emax [9]: 1
combination Emax [16]: 0.545
combination Emax (RD (Rhabdomyosarcoma)): 0.788
combination Emax [17]: 0.809
combination Emax [10]: 0.269
combination Emax [11]: 0.818
combination Emax [12]: 0.921
combination Emax [13]: 0.27
combination Emax [14]: 0.466
